Target: T1, medaka Esr1 (mEsr1) (Oryzias latipes, UniProt P50241)
T1 construct: expressed in transfected cells; host or cells: HEK293 (human embryonic kidney cells), transient transfection with FuGENE HD
T1 sequence (P50241 1-620): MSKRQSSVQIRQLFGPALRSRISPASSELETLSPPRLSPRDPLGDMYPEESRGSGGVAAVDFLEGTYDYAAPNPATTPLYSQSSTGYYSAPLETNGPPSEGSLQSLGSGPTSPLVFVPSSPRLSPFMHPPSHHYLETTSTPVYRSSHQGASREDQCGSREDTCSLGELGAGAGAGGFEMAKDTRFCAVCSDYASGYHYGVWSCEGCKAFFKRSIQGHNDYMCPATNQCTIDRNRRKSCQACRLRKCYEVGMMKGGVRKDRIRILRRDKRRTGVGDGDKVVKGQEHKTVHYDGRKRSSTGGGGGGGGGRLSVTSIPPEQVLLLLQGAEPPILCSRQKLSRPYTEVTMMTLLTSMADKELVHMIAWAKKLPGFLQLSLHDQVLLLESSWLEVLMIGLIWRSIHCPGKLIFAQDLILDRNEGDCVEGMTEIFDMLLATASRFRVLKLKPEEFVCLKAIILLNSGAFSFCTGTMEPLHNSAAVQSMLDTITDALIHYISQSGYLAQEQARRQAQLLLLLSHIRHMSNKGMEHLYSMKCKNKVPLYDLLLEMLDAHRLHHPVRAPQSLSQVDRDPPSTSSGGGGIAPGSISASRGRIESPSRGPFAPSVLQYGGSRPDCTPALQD
Assay: Medaka Esr1 reporter gene assay (RGA), antagonist assay with 1 nM E2, HEK293 cells
Format: cell-based, Japanese medaka (Oryzias latipes)
Method: To support interpretation of the biological effects observed in the FSTRA studies, in vitro RGAs using medaka Esr1 (mEsr1) and medaka ARβ (mARβ) were performed for the 16 test chemicals. In the present study, Esr1 and ARβ, which are ancestral subtypes among Esrs and ARs in Japanese medaka, were selected based on the phylogenetical analyses of Esr and AR with each receptor RGAs (Ogino et al., [2016], [2018]; Tohyama et al., [2015]).
The mEsr1 RGA consisting of agonist and antagonist assays were performed according to the methods previously reported (Katsu et al., [2010]; Lange et al., [2012]; Miyagawa et al., [2014]). Briefly, human embryonic kidney cells 293 (HEK293), precultured, were seeded in 96‐well plates at 15,000 cells/well with 200 μl of culture medium, phenol‐red‐free Dulbecco's Modified Eagle's medium (ThermoFisher Scientific K.K., Tokyo, Japan) supplemented with 2‐mM L‐glutamine and 10% charcoal/dextran‐treated fetal bovine serum (Hyclone, UT, USA), and then incubated for 24 h in 5% CO2 at 37°C. After the 24‐h incubation, 20 μl of test medium containing 40 ng of medaka Esr1/pcDNA3.1, 80 ng of ERE‐TK‐Luc, and 20 ng of pRL‐TK‐Rlu and 1.2 μL of transfection reagent FuGENE HD (Promega, WI, USA) were added into each well. The assay plates were incubated for another 4 h in order to transfect the three vectors into the HEK293 cells. After the vectors were successfully transfected, in agonist assay, 24 μl of concentrated test chemical solution was applied to the test medium in the plate wells. […] After chemical treatment for 40 h, luciferase activity of the cells was measured, and the promoter activity was calculated as firefly (Photinus pyralis)‐/sea pansy (Renilla reniformis)‐luciferase activity in each well. The luciferase activities were quantified by a chemiluminescence assay with Dual‐Luciferase Reporter Assay System (Promega) in accordance with the manufacturer's instructions, and luminescence intensity of firefly and sea pansy luciferin was measured using a luminometer, TriStar LB941 (Berthold Technology, Oak Ridge, TN, USA).
Effect concentrations, that is, EC50 (a half maximal effective concentration) in the agonist assay and IC50 (a half maximal inhibitory concentration) in the antagonist assay, were estimated by nonlinear curve fitting (e.g., three parameters logistic regression curve) using GraphPad Prism (GraphPad Software Inc., La Jolla, CA, USA).

Compound `CC/C(=C(\c1ccc(O)cc1)c1ccc(OCCN(C)C)cc1)c1ccccc1` [4HTAM, 4‐hydroxytamoxifen] has an IC50 of 520 pM.
